Assay results: US8932842B2, “Aminopyridine dimer compounds, compositions and related methods for neuronal nitric oxide synthase inhibition” (Northwestern University, priority 2009, dated 2015)
“Also recorded” adds a separate entry of the source. Where two headings read alike, the source gives them in different places.

Assays:
bovine eNOS = target: T1, bovine eNOS (Bos taurus, UniProt P29473); test: NOS enzyme assay (hemoglobin capture), eNOS; type: biochemical
T1 construct: made in house; host or cells: E. coli
Procedure: (§1) As above, the activities of the target compounds of Schemes 8-9 were determined against three NOS isozymes: rat nNOS, bovine eNOS and marine iNOS using known literature methods.
(§2) Enzyme Assays. […] The four enzyme isoforms were recombinant enzymes overexpressed (in E. coli) and isolated as reported. […] The formation of nitric oxide was measured using a well-known hemoglobin capture assay, as described previously in the literature. […] Ki=IC50/(1+[S]/Km) (1)

murine macrophage iNOS = target: T2, murine macrophage iNOS (Mus musculus, UniProt P29477); test: NOS enzyme assay (hemoglobin capture), iNOS; type: biochemical
T2 construct: made in house; host or cells: E. coli
Procedure: as §1, §2

rat nNOS = target: T3, rat nNOS (Rattus norvegicus, UniProt P29476); test: NOS enzyme assay (hemoglobin capture), nNOS; type: biochemical; conditions: for Ki: rat nNOS; for activity/potency for nNOS in words: purified enzyme assay; for n/e: ratio of Ki (eNOS) to Ki (nNOS); for n/e / n/i: Tables 1-3; for n/i: ratio of Ki (iNOS) to Ki (nNOS)
T3 construct: made in house; host or cells: E. coli
Procedure: as §1, §2

[1] = target: T4, nNOS in 293T cells overexpressing nNOS (293T/nNOS cells) (Rattus norvegicus, UniProt P29476); test: Cell-based assay: inhibition of nNOS in 293T/nNOS cells, nitrite by Griess reagent; conditions: for membrane penetration ability / bioavailability based on cell-based assay: inferred from 293T/nNOS cell-based assay; for activity in the cell-based assay in words: 293T/nNOS cells, FIG. 4
T4 construct: expressed in transfected cells; host or cells: 293T cells (293T/nNOS)
Source text: After eight hours, the amount of nitrite in culture media was quantified with the Griess reagent. Each data point is an average of two independent experiments.

[2] = Table 4, read-out: Ki (μM) eNOS
[3] = Table 4, read-out: Ki (μM) iNOS
[4] = Table 4, read-out: Ki (μM) nNOS
[5] = Ki calculated from directly measured IC50 values, read-out: Ki eNOS
[6] = Ki calculated from directly measured IC50 values, read-out: Ki iNOS
[7] = Ki calculated from directly measured IC50 values, read-out: Ki nNOS

| SMILES | Ki (bovine eNOS; [2]) [µM] | Ki (murine macrophage iNOS; [3]) [µM] | Selectivity n/e (rat nNOS; Table 4) | Selectivity n/i (rat nNOS; Table 4) | Ki (rat nNOS; [4]) [µM] | activity/potency for nNOS in words (rat nNOS) | Ki (rat nNOS; [7]) [µM] | also measured |
| --- | --- | --- | --- | --- | --- | --- | --- | --- |
| Cc1cc(N)nc(CCc2cc(CCCN)cc(CCc3cc(C)cc(N)n3)c2)c1 [HH026] | 12.1 | 32.5 | 22 | 60 | 0.54 | – | – | – |
| Cc1cc(N)nc(CCc2cncc(CCc3cc(C)cc(N)n3)c2)c1 [3j, 6,6′-(2,2′-(Pyridine-3,5-diyl)bis(ethane-2,1-diyl))bis(4-methylpyridin-2-amine)] | – | – | – | – | – | – | – | membrane penetration ability / bioavailability based on cell-based assay [1]: very good membrane penetration ability; also recorded: improved bioavailability |
| Cc1cc(N)nc(CCc2cncc(CCc3cc(C)nc(N)c3)c2)c1 [3k, 4-(2-(5-(2-(6-Amino-4-methylpyridin-2-yl)ethyl)pyridin-3-yl)ethyl)-6-methylpyridin-2-amine] | – | – | – | – | – | highly potent | 0.103 | Ki (bovine eNOS; [5]): 16.1 µM; Ki (murine macrophage iNOS; [6]): 1.91 µM; selectivity for nNOS over eNOS (rat nNOS): 156 fold; n/e (rat nNOS): 156; n/i (rat nNOS): 19; membrane penetration ability / bioavailability based on cell-based assay [1]: very good membrane penetration ability |
| Cc1cc(N)nc(CCc2cccc(CCc3cc(C)cc(N)n3)c2)c1 [3g, 6,6′-(2,2′-(1,3-Phenylene)bis(ethane-2,1-diyl))bis(4-methylpyridin-2-amine)] | – | – | – | – | – | – | – | activity in the cell-based assay in words [1]: almost no activity |
| Cc1cc(N)nc(CCc2cc(CCc3cc(C)cc(N)n3)cc(N3CCN(C)CC3)c2)c1 [HH027] | 97.4 | 138 | 17 | 24 | 5.75 | – | – | – |
| Cc1cc(N)nc(CCc2cc(C#N)cc(CCc3cc(C)cc(N)n3)c2)c1 [HH006, 3,5-bis(2-(6-amino-4-methylpyridin-2-yl)ethyl)benzonitrile] | 26.4 | 13.4 | 472 | 239 | 0.056 | good potency and selectivity | – | – |
| Cc1cc(C)nc(NCc2ccc3cc(CNc4cc(C)cc(C)n4)ccc3c2)c1 [3a, N,N′-(Naphthalene-2,6-diylbis(methylene))bis(4,6-dimethylpyridin-2-amine)] | – | – | – | – | – | poor activity | > 11.5 | – |
| Cc1cc(N)nc(CCc2cccc(CCc3cc(C)nc(N)c3)c2)c1 [3h, 4-(3-(2-(6-Amino-4-methylpyridin-2-yl)ethyl)phenethyl)-6-methylpyridin-2-amine] | – | – | – | – | – | highly potent | 0.038 | Ki (bovine eNOS; [5]): 4.2 µM; Ki (murine macrophage iNOS; [6]): 2.73 µM; selectivity for nNOS over eNOS (rat nNOS): 111 fold; selectivity for nNOS over iNOS (rat nNOS): 71.8 fold; n/e (rat nNOS): 111; n/i (rat nNOS): 71.8; activity in the cell-based assay in words [1]: almost no activity |
| Cc1cc(N)nc(CCc2ccc3ccc(CCc4cc(C)cc(N)n4)cc3c2)c1 [3c, 6,6′-(2,2′-(Naphthalene-2,7-diyl)bis(ethane-2,1-diyl))bis(4-methylpyridin-2-amine)] | – | – | – | – | – | – | 0.102 | Ki (bovine eNOS; [5]): 1.52 µM; Ki (murine macrophage iNOS; [6]): 2.05 µM; n/e (rat nNOS): 14.9; n/i (rat nNOS): 20.1 |
| Cc1cc(CCc2cccc(CCc3cc(C)nc(N)c3)c2)cc(N)n1 [3i, 4,4′-(2,2′-(1,3-Phenylene)bis(ethane-2,1-diyl))bis(6-methylpyridin-2-amine)] | – | – | – | – | – | poor activity | 2.25 | – |
| Cc1cc(N)nc(CCc2cc(CN)cc(CCc3cc(C)cc(N)n3)c2)c1 [HH030, 6,6′-((5-(aminomethyl)-1,3-phenylene)bis(ethane-2,1-diyl))bis(4-methylpyridin-2-amine)] | 11.7 | 6.31 | 221 | 119 | 0.053 | – | – | – |
| Cc1cc(N)nc(CCc2ccc(CCc3cc(C)nc(N)c3)cc2)c1 [3f, 4-(4-(2-(6-Amino-4-methylpyridin-2-yl)ethyl)phenethyl)-6-methylpyridin-2-amine] | – | – | – | – | – | inactive | 0.167 | – |
| Cc1cc(N)nc(CCc2ccc(CCCN)c(CCc3cc(C)cc(N)n3)c2)c1 [HH032] | 33.4 | 21.9 | 303 | 199 | 0.11 | – | – | – |
| Cc1cc(N)nc(CCc2ccc3cc(CCc4cc(C)cc(N)n4)ccc3c2)c1 [3b, 6,6′-(2,2′-(Naphthalene-2,6-diyl)bis(ethane-2,1-diyl))bis(4-methylpyridin-2-amine)] | – | – | – | – | – | – | 0.241 | Ki (bovine eNOS; [5]): 1.74 µM; Ki (murine macrophage iNOS; [6]): 2.27 µM; selectivity for nNOS over eNOS (rat nNOS): 7 fold; selectivity for nNOS over iNOS (rat nNOS): 9 fold; n/e (rat nNOS): 7.22; n/i (rat nNOS): 9.42 |
| Cc1cc(N)nc(CCc2cc(CCc3cc(C)cc(N)n3)cc(N3CCNCC3)c2)c1 [HH025] | 63.2 | 36.7 | 30 | 17 | 2.1 | – | – | – |
| Cc1cc(N)nc(CCc2ccc3ccc(CCc4cc(C)nc(N)c4)cc3c2)c1 [3d, 4-(2-(7-(2-(6-Amino-4-methylpyridin-2-yl)ethyl)naphthalen-2-yl)ethyl)-6-methylpyridin-2-amine] | – | – | – | – | – | little activity | > 0.5 | – |
| Cc1cc(N)nc(CCc2ccc(CCc3cc(C)cc(N)n3)cc2)c1 [3e] | – | – | – | – | – | – | 0.097 | Ki (bovine eNOS; [5]): 2.39 µM; Ki (murine macrophage iNOS; [6]): 2.41 µM; selectivity for nNOS over eNOS (rat nNOS): 25 fold; n/e (rat nNOS): 24.6; n/i (rat nNOS): 24.8 |
